Laboratory results taken from patent US20160008493A1, “RADIOACTIVE SUBSTRATES FOR ALDEHYDE DEHYDROGENASE” (THE JOHNS HOPKINS UNIVERSITY, priority 2013, published 2016).

Tests used:
ALDH [1] = biological target: T1, ALDH (Mus musculus, UniProt P24549); test: In vitro radio uptake assay for ALDH activity, L1210/cpa cells; format: cell-based, murine; settings: L1210/cpa (ALDH^hi) cells; 1 μCi, 37° C., 30 mins; radioactivity (CPM) by gamma counter; FIG. 1
T1 construct: was tested for specific uptake by ALDH-expressing cell lines (K562 and L1210/cpa); endogenous in cells; host or cells: L1210/cpa
T1 sequence (P24549 1-501): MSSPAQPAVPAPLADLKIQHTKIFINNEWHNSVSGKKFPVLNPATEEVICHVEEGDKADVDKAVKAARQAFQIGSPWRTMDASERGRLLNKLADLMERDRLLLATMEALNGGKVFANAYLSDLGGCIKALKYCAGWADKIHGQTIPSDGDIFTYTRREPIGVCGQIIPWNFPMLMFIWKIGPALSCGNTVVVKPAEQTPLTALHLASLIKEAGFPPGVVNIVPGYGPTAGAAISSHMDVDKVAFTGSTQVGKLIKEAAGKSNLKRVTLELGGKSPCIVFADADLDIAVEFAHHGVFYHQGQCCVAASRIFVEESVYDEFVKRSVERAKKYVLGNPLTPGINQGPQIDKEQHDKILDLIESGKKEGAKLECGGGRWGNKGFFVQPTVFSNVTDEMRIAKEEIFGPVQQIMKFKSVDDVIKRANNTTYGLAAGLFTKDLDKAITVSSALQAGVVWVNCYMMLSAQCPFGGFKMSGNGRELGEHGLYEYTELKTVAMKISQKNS
Source text: (§1) The K562 human chronic myelogenous leukemia cell line was purchased from American Type Culture Collection (CLL-243™) and maintained in suspension in IMDM media supplemented with 10% FBS. The murine leukemia cell line L1210 (ALDH^low) and L1210/cpa (ALDH^hi) were provided by Dr. Richard J. Jones (Johns Hopkins University) and maintained in suspension in RPMI 1640 supplemented with 10% FBS. Human glioma cell line, U87-tri was provided by Dr. John Laterra (Kennedy Krieger Institute) and maintained in DMEM media supplemented with 10% FBS. All cells were grown at 37° C. in a humidified incubator with 5% CO2.
(§2) ^125IBz-A-DA was dissolved in 100% DMSO at 10 mCi/50 μL concentration and stored at −20° C. as stock solutions. 25 μL of a stock was deprotected by mixing with the same volume of 2N HCl for 30 mins at room temperature and the resulting aldehyde (IBz-A) were neutralized by adding 350 μL of the assay buffer (PBS supplemented with 1% FBS and 50 μM Verapamil, Sigma V4629) and immediately used.
(§3) One million cells were resuspended in the assay buffer and 1 μCi of IBz-A (with or without 1000 fold cold competitor) was added to the cell. […] Cells were resuspended in the cold assay buffer ([…]) and stored in the ice until analyzed. Cells were washed twice with cold assay buffer and the radioactivity was measured by LKB Wallac gamma counter (1282 compugamma CS).

ALDH [2] = test: In vitro radio uptake assay for ALDH activity, K562 cells; format: cell-based, human; settings: 1 μCi, 37° C., 30 mins, radioactivity (CPM) by gamma counter, FIG. 1
Source text: as §1, §2, §3

increase of uptake compared with cells treated with DEAB (ALDH inhibitor) (ALDH [1]): more than 5 fold
SMILES: O=CCNC(=O)c1ccc([125I])cc1 [^125IBz-A]
increase of uptake compared with cells treated with DEAB (ALDH inhibitor) (ALDH [2]): more than 5 fold
